Values of other authors in patent publication US11344529B2, “Compositions and methods for the treatment of metabolic conditions” (Reven IP HoldCo LLC, priority 2017, dated 2022).

Legend:
[1] = more than 500 postmenopausal women

For `CC(C)=CCC/C(C)=C/CC/C(C)=C/CC/C(C)=C/CC1=C(C)C(=O)c2ccccc2C1=O` [Vitamin K2], the “association of intake with coronary calcification” value [1] is given as “associated with the trend toward decreasing coronary calcification”, the “total cholesterol, lipid peroxidation, aortic ester cholesterol deposition, plasma factor X activity” value (compared to the control group) is given as “reduce total cholesterol levels, lipid peroxidation, ester cholesterol deposition in the aorta and factor X activity in plasma” and the “atherosclerotic plaque progression in the aorta and pulmonary arteries” value (rabbits, 1-10 mg/kg daily for 10 weeks) is given as “inhibited the atherosclerotic plaque progression”.
